Earlier results in patent publication US20130143897A1, “ORAL CONTROLLED RELEASE PHARMACEUTICAL COMPOSITIONS OF BLONANSERIN” (LUPIN LIMITED, priority 2010, published 2013).

Experiments:
serotonin (S2) receptors = serotonin (S2) receptors (Homo sapiens, UniProt P28223)
dopamine (D2) receptors = dopamine (D2) receptors (Homo sapiens, UniProt P14416)
Chain of dopamine (D2) receptors (P14416 whole entry): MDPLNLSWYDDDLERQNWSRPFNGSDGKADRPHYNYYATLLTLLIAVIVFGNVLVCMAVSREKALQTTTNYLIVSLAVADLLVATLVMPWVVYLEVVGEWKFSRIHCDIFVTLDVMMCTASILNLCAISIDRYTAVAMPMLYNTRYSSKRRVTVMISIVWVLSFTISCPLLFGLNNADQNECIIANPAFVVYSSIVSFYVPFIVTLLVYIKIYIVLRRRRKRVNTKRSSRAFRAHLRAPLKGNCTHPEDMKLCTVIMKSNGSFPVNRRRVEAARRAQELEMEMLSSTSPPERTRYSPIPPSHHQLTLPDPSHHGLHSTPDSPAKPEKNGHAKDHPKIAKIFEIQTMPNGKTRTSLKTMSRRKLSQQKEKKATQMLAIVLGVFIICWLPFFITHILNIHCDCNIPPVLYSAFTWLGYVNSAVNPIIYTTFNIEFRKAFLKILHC

Chain of serotonin (S2) receptors (P28223 whole entry): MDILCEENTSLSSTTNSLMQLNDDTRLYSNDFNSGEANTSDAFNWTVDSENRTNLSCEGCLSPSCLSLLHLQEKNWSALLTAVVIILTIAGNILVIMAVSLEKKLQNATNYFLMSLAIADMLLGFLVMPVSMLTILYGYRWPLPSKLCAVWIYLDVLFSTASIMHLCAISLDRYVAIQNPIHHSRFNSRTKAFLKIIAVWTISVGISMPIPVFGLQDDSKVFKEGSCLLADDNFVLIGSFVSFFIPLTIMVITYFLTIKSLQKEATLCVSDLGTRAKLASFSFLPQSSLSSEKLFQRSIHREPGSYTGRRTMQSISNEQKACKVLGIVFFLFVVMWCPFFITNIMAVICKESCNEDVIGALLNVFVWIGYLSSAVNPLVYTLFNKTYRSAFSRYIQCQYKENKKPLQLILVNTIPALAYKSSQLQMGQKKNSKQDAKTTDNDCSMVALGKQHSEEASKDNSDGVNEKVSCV

solubility in water: poor | binding property to serotonin (S2) receptors (serotonin (S2) receptors): potent | binding property to dopamine (D2) receptors (dopamine (D2) receptors): potent
Compound: CCN1CCN(c2cc(-c3ccc(F)cc3)c3c(n2)CCCCCC3)CC1 [Blonanserin, 2-(4-Ethyl-1-piperazinyl)-4-(4-fluorophenyl)-5,6,7,8,9,10-hexahydrocycloocta[b]pyridine]
